Source: patent publication US12187662B2, “FOXM1 inhibitor compositions and methods of using the same” (The Board of Trustees of the University of Illinois, priority 2018, dated 2025)
“Also recorded” adds a separate entry of the source. Like-named read-outs stand apart in the source and are kept apart here.

Columns and labels:
MCF7 cells = assay: Cell proliferation assay (WST-1), MCF7; assay type: cell-based, human
Method: (§1) All cells were tested for mycoplasma using Real-Time PCR Mycoplasma Detection Kit (Akron Biotech, Boca Raton, FL).
(§2) All assays were performed in triplicate.

MDA-MB-231 cells = assay: Cell proliferation assay (WST-1), MDA-MB-231; assay type: cell-based, human
Method: as §1, §2

DT22 cells = assay: Cell proliferation assay (WST-1), DT22; assay type: cell-based, human
Method: as §1, §2

[1] = Pharmacokinetic studies in mice after single s.c. or oral dose; details: for half-life / AUC(0-t): female, CD-1, mouse, plasma
breast cancer cell lines = assay: Proliferation of breast cancer cell lines (panel, line not specified); assay type: cell-based, human; details: cell line not specified or several lines
Method: as §1, §2

[2] = tested on: DT22 triple negative human breast tumor xenografts; assay: DT22 triple negative breast tumor xenografts in NSG mice; assay type: in vivo, mouse
Method: In vivo breast cancer xenograft studies For examination of the growth of triple-negative DT22 breast tumors, intact female NOD/SCID-gamma (NSG) mice were used. DT-22 cells (1×10^6 cells/mouse) were injected s.c. into the right axial mammary gland. Mice received s.c. injection or oral gavage daily or every second or third day, as indicated, with vehicle or FOXM1 inhibitor compound, and tumor growth was monitored over time.

[3] = tested on: FOXM1 target genes in DT22 cells; assay: FOXM1 target gene expression by qRT-PCR, DT22; assay type: cell-based, human; details: DT22, 24 h, at IC50 concentration
Text: RNA was extracted from cells and expression of different genes was monitored by qRT-PCR. Assays were run in triplicate. Values are mean±SEM. *, p<0.05; **, p<0.01; ***, p<0.001. RNA isolation and real-time PCR Total RNA was isolated using TRIzol (Invitrogen) and reverse transcribed using […] reverse transcriptase (New England BioLabs). […] Relative mRNA levels of genes were normalized to the housekeeping gene 36B4, and fold change calculated relative to the vehicle treated samples. Results are the average±SD from at least two independent experiments carried out in triplicate. Primer sequences for the genes studied were obtained from the Harvard Primer Bank. Sequences are available on their website.

[4] = tested on: FOXM1 target genes in MCF7 cells; assay: FOXM1 target gene expression by qRT-PCR, MCF7; assay type: cell-based, human; details: MCF7, 24 h, at IC50 concentration
Method: RNA was extracted from cells and expression of different genes was monitored by qRT-PCR. Assays were run in triplicate. Values are mean±SEM. *, p<0.05; **, p<0.01; ***, p<0.001. RNA isolation and real-time PCR Total RNA was isolated using TRIzol (Invitrogen) and reverse transcribed using […] reverse transcriptase (New England BioLabs). Real-time PCR was performed using SYBRgreen PCR Master Mix (Roche) as described (Bergamaschi et al., Breast Cancer Res., 2014, 16:436). Relative mRNA levels of genes were normalized to the housekeeping gene 36B4, and fold change calculated relative to the vehicle treated samples. Results are the average±SD from at least two independent experiments carried out in triplicate. Primer sequences for the genes studied were obtained from the Harvard Primer Bank. Sequences are available on their website.

[5] = inhibition of cell proliferation, read-out: IC50 MCF7
[6] = Homo sapiens, MCF7, inhibition of cell proliferation, read-out: IC50 MCF7
[7] = Homo sapiens, DT-22, inhibition of cell proliferation
[8] = Homo sapiens, MDA-MB-231, inhibition of cell proliferation, read-out: IC50 MDA-MB-231
[9] = Homo sapiens, MCF7, read-out: IC50 MCF7
[10] = sc, 60 mg/kg, PK s.c. AUC0-48, mice, 60 mg/kg s.c.
[11] = Homo sapiens, MDA-MB-231, read-out: IC50 MDA-MB-231
[12] = sc, 40 mg/kg, PK s.c. AUC0-48, mice, 40 mg/kg s.c.

6-(4-((Z)-((5S,7S)-adamantan-2-ylidene)(4-chlorophenyl)methyl)phenoxy)-N,N-diethylhexan-1-amine [NB-54]
IC50 (MCF7 cells; [5]): 4000 nM
IC50 (MDA-MB-231 cells; inhibition of cell proliferation, read-out: IC50 MDA-MB-231): 4000 nM

C[N+]1(CCCCOc2ccc(C(=C3C4CC5CC(C4)CC3C5)c3ccc(OCCCC[N+]4(C)CCCCCC4)cc3)cc2)CCCCCC1 [NB-87, 1,1′-((((((5r,7r)-adamantan-2-ylidene)methylene)bis(4,1-phenylene))bis(oxy))bis(butane-4,1-diyl))bis(1-methylazepan-1-ium) diiodide]
IC50 (MCF7 cells; [6]): 1700 nM
IC50 (DT22 cells; [7]): 1500 nM
IC50 (MDA-MB-231 cells; [8]): 900 nM

C[N+]1(CCCCCCOc2ccc(C(c3ccc(OCCCCCC[N+]4(C)CCCCC4)cc3)=C3C4C[C@H]5C[C@@H](C4)C[C@H]3C5)cc2)CCCCC1 [NB-71, 1,1′-((((((5r,7r)-adamantan-2-ylidene)methylene)bis(4,1-phenylene))bis(oxy))bis(hexane-6,1-diyl))bis(1-methylpiperidin-1-ium) diodide]
IC50 (MCF7 cells; [9]): 1100 nM
half-life ([1]; sc): 25 to 40 h
half-life ([1]; sc, 60 mg/kg): 119 h
AUC(0-t) [1, 10]: 364 µM·h
Blood levels after oral administration ([1]; mice, oral, doses of FIGS. 6A-6B): very low levels
Blood levels after s.c. injection ([1]; mice, s.c., doses of FIGS. 6A-6B): very high blood levels
IC50 (DT22 cells; [7]): 800 nM
IC50 (MDA-MB-231 cells; [11]): 500 nM

C[N+]1(CCCCCOc2ccc(C(=C3C4CC5CC(C4)CC3C5)c3ccc(OCCCCC[N+]4(C)CCCCCC4)cc3)cc2)CCCCCC1 [NB-89, 1,1′-((((((5r,7r)-adamantan-2-ylidene)methylene)bis(4,1-phenylene))bis(oxy))bis(pentane-5,1-diyl))bis(1-methylazepan-1-ium) diiodide]
IC50 (MCF7 cells; [6]): 600 nM
IC50 (MCF7 cells; [5]): 700 nM
IC50 (DT22 cells; [7]): 1100 nM
IC50 (MDA-MB-231 cells; [8]): 500 nM

c1cc(C(c2ccc(OCCCCCCN3CCCCC3)cc2)=C2[C@H]3C[C@@H]4C[C@@H](C[C@H]2C4)C3)ccc1OCCCCCCN1CCCCC1 [NB-70, 1,1′-((((((5r,7r)-Adamantan-2-ylidene)methylene)bis(4,1-phenylene))bis(oxy))bis(hexane-6,1-diyl))dipiperidine]
IC50 (MCF7 cells; [9]): 700 nM
half-life ([1]; po, 60 mg/kg): 90.9 h
AUC(0-t) ([1]; po, 60 mg/kg, PK p.o. AUC0-48, mice, 60 mg/kg p.o.): 6 µM·h
AUC(0-t) [1, 10]: 10.2 µM·h
IC50 (MDA-MB-231 cells; [11]): 900 nM

c1cc(C(=C2C3CC4CC(C3)CC2C4)c2ccc(OCCCCCCN3CCCCCC3)cc2)ccc1OCCCCCCN1CCCCCC1 [NB-72, 1,1′-((((((5r,7r)-Adamantan-2-ylidene)methylene)bis(4,1-phenylene))bis(oxy))bis(hexane-6,1-diyl))bis(azepane)]
IC50 (MCF7 cells; [9]): 700 nM
IC50 (DT22 cells; [7]): 700 nM

CC[N+](C)(CCO)CCCCCCOc1ccc(C(=C2C3CC4CC(C3)CC2C4)c2ccc(OCCCCCC[N+](C)(CC)CCO)cc2)cc1 (stereo not drawn) [NB-134, 6,6′-(((((5r,7r)-adamantan-2-ylidene)methylene)bis(4,1-phenylene))bis(oxy))bis(N-ethyl-N-(2-hydroxyethyl)-N-methylhexan-1-aminium) diiodide]
IC50 (MCF7 cells; [6]): 1100 nM
IC50 (DT22 cells; [7]): 1500 nM

C[N+]1(CCCCCOc2ccc(C(=C3C4CC5CC(C4)CC3C5)c3ccc(OCCCCC[N+]4(C)CCCCC4)cc3)cc2)CCCCC1 [NB-88, 1,1′-((((((5r,7r)-adamantan-2-ylidene)methylene)bis(4,1-phenylene))bis(oxy))bis(pentane-5,1-diyl))bis(1-methylpiperidin-1-ium) diiodide]
IC50 (MCF7 cells; [6]): 1700 nM
IC50 (DT22 cells; [7]): 1200 nM
IC50 (MDA-MB-231 cells; [8]): 700 nM

CN1CCN(CCCCCCOc2ccc(C(=C3C4CC5CC(C4)CC3C5)c3ccc(OCCCCCCN4CCN(C)CC4)cc3)cc2)CC1 [NB-66, 4,4′-((((((5r,7r)-adamantan-2-ylidene)methylene)bis(4,1-phenylene))bis(oxy))bis(hexane-6,1-diyl))bis(1-methylpiperazine)]
IC50 (MCF7 cells; [6]): 800 nM
IC50 for inhibition of proliferation of breast cancer cell lines (breast cancer cell lines): submicromolar
PK p.o. AUC0-48 ([1]; mice, 60 mg/kg p.o.): too low to measure
PK s.c. AUC0-48 ([1]; mice, 60 mg/kg s.c.): 6.1 µM·h
PK s.c. t1/2 ([1]; mice, 60 mg/kg s.c.): 45.6 h

C[N+]1(CCCCOc2ccc(C(=C3C4CC5CC(C4)CC3C5)c3ccc(OCCCC[N+]4(C)CCCCC4)cc3)cc2)CCCCC1 [NB-86, 1-(4-(4-((E)-((5R,7R)-adamantan-2-ylidene)(4-(4-(1-metheyliumylpiperidin-1-ium-1-yl)butoxy)phenyl)methyl)phenoxy)butyl)-1-methylpiperidin-1-ium diiodide]
IC50 (MCF7 cells; [6]): 1400 nM
IC50 (DT22 cells; [7]): 1900 nM
IC50 (MDA-MB-231 cells; [8]): 1100 nM

CCN(CC)CCOCCOCCOc1ccc(C(=C2C3CC4CC(C3)CC2C4)c2ccc(OCCOCCOCCN(CC)CC)cc2)cc1 [NB-53, 2,2′-(((((((((5r,7r)-adamantan-2-ylidene)methylene)bis(4,1-phenylene))bis(oxy))bis(ethane-2,1-diyl))bis(oxy))bis(ethane-2,1-diyl))bis(oxy))bis(N,N-diethylethan-1-amine)]
IC50 (MCF7 cells; [6]): 3500 nM
IC50 (MDA-MB-231 cells; [8]): < 5000 nM

C[N+]1(CCCCCCCCOc2ccc(C(=C3C4CC5CC(C4)CC3C5)c3ccc(OCCCCCCCC[N+]4(C)CCCCCC4)cc3)cc2)CCCCCC1.[I-].[I-] [NB-81, 1,1′-((((((5r,7r)-adamantan-2-ylidene)methylene)bis(4,1-phenylene))bis(oxy))bis(octane-8,1-diyl))bis(1-methylazepan-1-ium) diiodide]
IC50 (MCF7 cells; [6]): 600 nM
Outcome of animals in PK study ([1]; mice, 40 mg/kg s.c adm.): Died at 40 mg/kg s.c adm.
IC50 (DT22 cells; [7]): 1600 nM

CC[N+](C)(CC)CCCCCCOc1ccc(C(c2ccc(OCCCCCC[N+](C)(CC)CC)cc2)=C2C3C[C@H]4C[C@@H](C3)C[C@H]2C4)cc1 [NB-115, 6-(4-(((5r,7r)-adamantan-2-ylidene)(4-((6-(diethyl(methyl)-λ^4-azaneyl)hexyl)oxy)phenyl)methyl)phenoxy)-N,N-diethyl-N-methylhexan-1-aminium diiodide]
Tumor growth in vivo, low doses ([2]; 5 or 10 mg/kg s.c. every second or third day): greatly suppress tumor growth
Growth of DT22-Luc xenograft tumors, low doses ([2]; NB-115 s.c. daily 2 or 6 mg/kg, NB-63 s.c. daily 20 mg/kg until day 20, then 10 mg/kg every other day): suppress the growth; also recorded: effective in suppressing the growth
Animal body weight ([2]; same low-dose regimens as tumor study (FIG. 14B)): do not affect; also recorded: little impact
Expression of ATF3 (gene suppressed by FOXM1) [3]: increased
Expression of FOXM1 stimulated target genes (FOXM1C, AURKB, CCNB1, PLK1) [3]: significantly reduced
Expression of ATF3 (gene suppressed by FOXM1) [4]: increased
Expression of FOXM1 stimulated target genes (FOXM1C, AURKB, CCNB1, PLK1) [4]: significantly reduced
IC50 (MCF7 cells; [9]): 1100 nM
half-life ([1]; sc): 25 to 40 h
AUC(0-t) [1, 12]: 746 µM·h

CCN(CC)CCCCCCOc1ccc(C(=C2C3CC4CC(C3)CC2C4)c2ccc(O)cc2)cc1 [NB-41, 4-((E)-((5R,7R)-adamantan-2-ylidene)(4-((6-(diethylamino)hexyl)oxy)phenyl)methyl)phenol]
IC50 (MCF7 cells; [6]): 1500 to 2000 nM
IC50 (MCF7 cells; [5]): 1500 nM
half-life ([1]; po, 40 mg/kg): 15.1 h
AUC(0-t) ([1]; po, 40 mg/kg, PK p.o. AUC0-48, mice, 40 mg/kg p.o.): 5.6 µM·h
half-life ([1]; sc, 40 mg/kg): 22.5 h
AUC(0-t) [1, 12]: 13.3 µM·h
IC50 (DT22 cells; [7]): 1500 to 2000 nM
IC50 (DT22 cells; inhibition of cell proliferation, read-out: IC50 DT-22): 2000 nM
